According to patent publication US12474342B2, “Methods for treating cancer and the use of biomarkers as a predictor of clinical sensitivity to therapies” (CELGENE CORPORATION, priority 2016, dated 2025):
Read-outs that look alike come from different tables or passages of the source.

Legend:
[1] = system: KASUMI-1 cells; assay: Anti-proliferation 72-hour CTG assay, KASUMI-1; type: cell-based; conditions: Homo sapiens; KASUMI-1, 72-hour CTG assay; read-out: IC50 of the anti-proliferative effect
Experimental: (§1) A plethora of AML cell lines were treated with serial dilutions of Compound D. IC50 value of the anti-proliferation effect of Compound D (as determined in 72-hour CTG assays) in each cell line is summarized in Table 1.

[2] = system: MV-4-11 cells; assay: Anti-proliferation 72-hour CTG assay, MV-4-11; type: cell-based; conditions: Homo sapiens, MV4-11; MV-4-11, 72-hour CTG assay; read-out: IC50 of the anti-proliferative effect
Experimental: as §1

[3] = system: HL-60 cells; assay: Anti-proliferation 72-hour CTG assay, HL-60; type: cell-based; conditions: Homo sapiens; HL-60, 72-hour CTG assay; read-out: IC50 of the anti-proliferative effect
Experimental: as §1

[4] = system: KG-1 AML cell cultures; assay: Induction of apoptosis (Annexin V assay), KG-1; type: cell-based; conditions: Homo sapiens, read-out: Induction of Apoptosis by Compound D (Annexin V assay) EC50
[5] = system: F36-P cells; assay: Apoptosis (caspase 3/7 activation), F36-P; type: cell-based, human
[6] = system: p-eIF2α, ATF4, ATF3, CHOP/DDIT3, cleaved Caspases; assay: UPR / ATF4 pathway and apoptosis markers in U937 cells (wild type and CRISPR knockouts); type: cell-based, human; conditions: for ATF4 pathway and apoptosis: 4 μM
Excerpt: PERK, one of the four eIF2α, kinases, was knocked out in U937 cells by CRISPR-mediated gene editing using PERK−/− Construct 1 or PERK−/− Construct 2.
GCN2, one of the four eIF2α, kinases, was knocked out in U937 cells by CRISPR-mediated gene editing using GCN2 CRISPR Construct 1 or GCN2 CRISPR Construct 4.

[7] = molecular target: T1, GSPT1 (Homo sapiens, UniProt P15170+Q96SW2); assay: GSPT1 degradation, western blot, MOLM-13; type: cell-based; design: endogenous in cells; conditions: 100 nM
Excerpt: (§2) Thus, Compound D-induced GSPT1 degradation is also CRBN-dependent.

[8] = molecular target: T1, GSPT1; assay: GSPT1 protein reduction, western analysis, HNT-34; type: cell-based; design: reduction in GSPT1 protein level was evaluated in human normal PBMCs; endogenous in cells; host or cells: primary PBMCs from normal donors (ID 4328, 4379) and AML patients (ID 11SH, 09P6); conditions: HNT-34, 10 nM Compound D
Experimental: (§3) The time course of the reduction in GSPT1 by Compound D also was studied for up to 48 hours. The progressive degradation of GSPT1 over the course of 1 to 20 hours was evident in the presence of all concentrations of Compound D studied from 3 to 300 nM in HNT-34, HL-60, and ML-2 cells, with little GSPT1 remaining by 20 hours at 100 or 300 nM Compound D in HNT-34 or HL-60 cells (FIG. 34 and FIG. 35C). Time-dependent reduction in GSPT1 was also observed in KG-1 and OCI-AML2 cells at 3 to 1000 nM Compound D, with little GSPT1 remaining in KG-1 cells at 100 to 300 nM at 24 hours or in OCI-AML2 cells at 300 and 1000 nM at 24 hours (FIG. 35D). Loss of GSPT1 occurred more slowly in Kasumi-1, AML-193, and […] cells. […] A positive association (r^2=0.50; […]

[9] = molecular target: T1, GSPT1; assay: GSPT1 protein reduction, western analysis, OCI-AML2; type: cell-based; design: reduction in GSPT1 protein level was evaluated in human normal PBMCs; endogenous in cells; host or cells: primary PBMCs from normal donors (ID 4328, 4379) and AML patients (ID 11SH, 09P6); conditions: for degradation of GSPT1: 100 nM
Experimental: as §2
The reduction in the level of GSPT1 protein was concentration-dependent over the range of 3 to 1000 nM in eight of the nine AML cell lines and over the range of 300 to 1000 nM in one relatively insensitive AML cell line. The time course of the reduction in GSPT1 by Compound D also was studied for up to 48 hours. The progressive degradation of GSPT1 over the course of 1 to 20 hours was evident in the presence of all concentrations of Compound D studied from 3 to 300 nM in HNT-34, HL-60, and ML-2 cells, with little GSPT1 remaining by 20 hours at 100 or 300 nM Compound D in HNT-34 or HL-60 cells (FIG. 34 and FIG. 35C). Time-dependent reduction in GSPT1 was also observed in KG-1 and OCI-AML2 cells at 3 to 1000 nM Compound D, with little GSPT1 remaining in KG-1 cells at 100 to 300 nM at 24 hours or in OCI-AML2 cells at 300 and 1000 nM at 24 hours (FIG. 35D). Loss of GSPT1 occurred more slowly in Kasumi-1, AML-193, and F36-P cells.
Compound D-mediated GSPT1 reduction at 8 hours was compared to induction of caspase 3/7 activation (apoptosis) at 12, 24, and 48 hour time points in these nine AML cell lines. […] A positive association (r^2=0.50; R=0.71; p value=4.86E-002) was observed between the level of GSPT1 reduction and apoptosis induction in the AML cell panel (FIG. 36), with >90% GSPT1 reduction correlating with induction of apoptosis.

[10] = molecular target: T1, GSPT1; assay: GSPT1 protein reduction, western analysis, Kasumi-1; type: cell-based; design: reduction in GSPT1 protein level was evaluated in human normal PBMCs; endogenous in cells; host or cells: primary PBMCs from normal donors (ID 4328, 4379) and AML patients (ID 11SH, 09P6)
Experimental: as §3

T1 sequence (P15170 1-637 isoform P15170-3): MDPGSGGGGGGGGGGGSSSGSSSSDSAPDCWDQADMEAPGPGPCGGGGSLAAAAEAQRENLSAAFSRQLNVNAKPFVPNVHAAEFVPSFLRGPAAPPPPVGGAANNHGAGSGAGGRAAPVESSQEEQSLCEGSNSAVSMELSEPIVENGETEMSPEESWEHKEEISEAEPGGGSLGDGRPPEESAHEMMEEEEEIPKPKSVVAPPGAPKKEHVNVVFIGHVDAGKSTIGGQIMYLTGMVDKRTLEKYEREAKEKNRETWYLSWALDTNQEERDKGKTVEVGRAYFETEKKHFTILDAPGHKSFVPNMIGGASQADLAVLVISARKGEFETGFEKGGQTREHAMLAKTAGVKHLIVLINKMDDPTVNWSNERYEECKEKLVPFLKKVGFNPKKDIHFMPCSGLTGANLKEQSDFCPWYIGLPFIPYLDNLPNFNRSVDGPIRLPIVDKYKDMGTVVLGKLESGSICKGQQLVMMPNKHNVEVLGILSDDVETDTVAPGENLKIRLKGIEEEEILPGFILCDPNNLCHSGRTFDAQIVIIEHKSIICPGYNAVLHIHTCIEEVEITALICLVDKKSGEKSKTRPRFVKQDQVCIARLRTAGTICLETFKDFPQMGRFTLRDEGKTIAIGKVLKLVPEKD
T1 sequence (Q96SW2 whole entry): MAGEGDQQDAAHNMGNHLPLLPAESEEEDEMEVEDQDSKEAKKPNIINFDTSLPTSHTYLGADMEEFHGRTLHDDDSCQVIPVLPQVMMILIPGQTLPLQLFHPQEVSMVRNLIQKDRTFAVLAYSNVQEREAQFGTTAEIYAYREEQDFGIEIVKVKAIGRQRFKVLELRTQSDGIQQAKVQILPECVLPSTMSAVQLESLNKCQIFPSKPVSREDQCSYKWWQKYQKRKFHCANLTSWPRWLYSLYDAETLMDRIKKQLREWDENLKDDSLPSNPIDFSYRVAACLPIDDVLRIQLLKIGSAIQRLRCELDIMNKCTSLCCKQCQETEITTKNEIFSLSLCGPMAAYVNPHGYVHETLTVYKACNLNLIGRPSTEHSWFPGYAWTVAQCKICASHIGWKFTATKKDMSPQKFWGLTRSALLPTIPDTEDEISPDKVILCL
T1 sequence (Q16531 whole entry partner): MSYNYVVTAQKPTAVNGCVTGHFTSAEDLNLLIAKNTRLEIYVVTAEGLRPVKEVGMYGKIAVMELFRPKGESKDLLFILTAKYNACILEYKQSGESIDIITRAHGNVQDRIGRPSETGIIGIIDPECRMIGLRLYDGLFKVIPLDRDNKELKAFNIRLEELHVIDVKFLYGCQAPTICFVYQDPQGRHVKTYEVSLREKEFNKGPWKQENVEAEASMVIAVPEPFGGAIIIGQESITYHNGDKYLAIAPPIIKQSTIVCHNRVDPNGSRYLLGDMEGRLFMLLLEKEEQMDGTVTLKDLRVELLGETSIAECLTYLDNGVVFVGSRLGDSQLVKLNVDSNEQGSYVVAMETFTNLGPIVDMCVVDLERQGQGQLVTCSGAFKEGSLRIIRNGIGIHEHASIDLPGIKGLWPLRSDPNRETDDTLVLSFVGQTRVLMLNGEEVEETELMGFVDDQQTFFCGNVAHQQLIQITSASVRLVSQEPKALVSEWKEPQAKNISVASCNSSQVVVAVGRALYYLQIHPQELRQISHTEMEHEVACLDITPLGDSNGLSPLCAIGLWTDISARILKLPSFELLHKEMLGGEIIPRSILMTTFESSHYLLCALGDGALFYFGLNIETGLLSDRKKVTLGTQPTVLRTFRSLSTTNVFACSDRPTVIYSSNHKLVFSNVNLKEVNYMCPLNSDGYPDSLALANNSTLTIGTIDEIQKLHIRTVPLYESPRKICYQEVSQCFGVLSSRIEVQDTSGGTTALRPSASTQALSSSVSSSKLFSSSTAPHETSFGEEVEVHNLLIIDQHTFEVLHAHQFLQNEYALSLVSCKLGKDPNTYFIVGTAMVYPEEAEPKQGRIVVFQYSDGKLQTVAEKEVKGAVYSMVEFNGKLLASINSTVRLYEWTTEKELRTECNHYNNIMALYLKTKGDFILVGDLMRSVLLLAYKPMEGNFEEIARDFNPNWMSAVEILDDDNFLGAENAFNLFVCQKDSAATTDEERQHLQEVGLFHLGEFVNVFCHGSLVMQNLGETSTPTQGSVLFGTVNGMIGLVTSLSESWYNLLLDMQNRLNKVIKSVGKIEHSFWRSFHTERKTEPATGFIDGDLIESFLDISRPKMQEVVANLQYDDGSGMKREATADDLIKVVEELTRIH

Work on `O=C1CCC(N2Cc3cc(CNC(=O)C(F)(F)c4ccc(Cl)cc4)ccc3C2=O)C(=O)N1` (centres unmarked) [Compound D, 2-(4-chlorophenyl)-N-((2-(2,6-dioxopiperidin-3-yl)-1-oxoisoindolin-5-yl)methyl)-2,2-difluoroacetamide] yielded an IC50 [1] of 21 nM, an IC50 [2] of 29 nM and an IC50 [3] of 20 nM. The EC50 ([4]; KG-1, Compound F 0 μM) was 20 nM, the EC50 ([4]; KG-1, Compound F 0.1 μM) was 30 nM and the EC50 ([4]; KG-1, Compound F 1.0 μM) was 100 nM. For the same molecule, the EC50 ([4]; KG-1, Compound F 10 μM) was 1000 nM, the EC50 ([4]; KG-1, Compound F 100 μM) was 8000 nM and the “Average Percent Increase in Apoptosis at 123 nM Compound D, Apoptosis (12 hr)” value ([5]; 12 hr) was 0%. For the same molecule, the “Average Percent Increase in Apoptosis at 123 nM Compound D, Apoptosis (24 hr)” value ([5]; 24 hr) was 2%, the “Average Percent Increase in Apoptosis at 123 nM Compound D, Apoptosis (48 hr)” value ([5]; 48 hr) was 6% and the “ATF4 pathway and apoptosis” value ([6]; GCN2 knockout U937 cells) was “blocked”. The “ATF4 pathway and apoptosis” value ([6]; wild type U937 cells) was “induced the ATF4 pathway and apoptosis”, the apoptosis ([6]; wild type and PERK knockout U937 cells, 2 μM) was “induced apoptosis” and the “degradation of GSPT1” value ([7]; CRBN -/- MOLM-13 cells) was “could not induce degradation”. For the same molecule, the “degradation of GSPT1” value ([7]; parental MOLM-13 cells) was “induced degradation”, the “time at which GSPT1 degradation was evident” value [8] was at most 2 h and the “degradation of GSPT1” value ([9]; CRBN -/- OCI-AML2 cells) was “could not induce degradation”. For the same molecule, the “reduction of GSPT1 protein levels” value ([9]; OC-AML2, 100 nM Compound D, 8 hours) was “greater than 800”, the “Percent Reduction at 100 nM Compound D GSPTI (8 hr)” value ([9]; OCI-AML2, 100 nM, 8 hr) was 89% and the “degradation of GSPT1” value ([9]; parental OCI-AML2 cells) was “induced degradation”. For the same molecule, the “Percent Reduction at 100 nM Compound D GSPTI (8 hr)” value ([10]; Kasumi-1, 100 nM, 8 hr) was 64% and the GSPT1 reduction ([10]; Kasumi-1, 300 nM Compound D, 8 hours) was 51%.
